Experimental findings from patent publication US7265152B2 (ViroPharma Incorporated, priority 2002, dated 2007) are described below.

Assay [1] deals with HCV replicon (BB7 sequence) in Huh-7-Clone A cells. The assay can be described thus: HCV replicon assay: ELISA of NS5A protein in replicon-containing cells (Inhibition of Viral RNA Replication). Particulars: read-out: Replicon. It counts as cell-based. An excerpt: Antiviral activity of representative compounds of the invention was first evaluated in a human liver-derived cell line (Huh-7-Clone A) containing the HCV replicon (BB7 sequence) (See Lohmann et al. Science. 1999, 285:110-3; Blight K J et al., Science. 2000, 290:1972-4; Pietschmann, T. et al., J. Virol. 2001, 73:1252-1264; and Lohmann, V. et al., J. Virol. 2001, 75:1437-1449). The HCV replicon is a subgenomic viral RNA that expresses the HCV proteins required for its own replication. These proteins include non-structural proteins NS3, NS4A, NS4B, NS5A and NS5B. The replicon also contains a foreign gene encoding a drug-selectable marker (neomycin phosphotransferase) to allow for G418 (neomycin) selection of cells that contain the replicon.
An ELISA (enzyme-linked immunosorbant assay) was used to determine the effect of compounds within the scope of the invention on the amount of HCV NS5A protein produced after a 72-hour incubation of the replicon-containing cells in the presence of varying concentrations of compound. COSTAR® 96-well cell culture plates were used but other known cell culture plates may be used. After incubation, media is removed from wells and the cells are fixed to the assay plate using 0.05% glutaraldehyde. The glutaraldehyde is then washed off using phosphate-buffered saline (PBS) following a 1 hour incubation and cells are blocked for non-specific antibody binding using for example SUPERBLOCK® reagent (blocking buffer) in PBS. The blocking agent is rinsed from the cells with PBS after 1 hour at 37° C. and primary monoclonal antibody is added to each well containing compound. Primary antibody is incubated for 1 hour at 37° C. and rinsed 3 times with PBS containing 0.02% TWEEN-20™ before addition of Horseradish Peroxidase (HRP) conjugated secondary antibody. HRP is incubated for 1 hour at 37° C. and rinsed several times, first with PBS/TWEEN-20™ followed by PBS alone. To quantify peroxidase activity, 3,3′,5, 5′-tetramethylbenzidine (TMB) substrate is added to the plate and after 30 minutes, the plates are read in an ELISA plate reader at an OD of 650 nm. Compound dose response was measured in an 8-point dose curve diluted serially to determine the inhibitory concentration at 50% (EC50 value). […] Ranges of 50% effective concentrations (EC50s) for representative compounds within the scope of this invention are listed in Table 1. Preferred compounds have 50% effective concentrations at about 30 μM or less, more preferred compounds have 50% effective concentrations at about 5 μM or less, and most preferred compounds have 50% effective concentrations at about 0.5 μM or less.
Background: A replicon is a self-replicating genome or part of one, used to study replication in cells.

Assay [2] concerns the target T1, HCV NS5B (Hepatitis C virus genotype 1b, UniProt Q9WMX2).
T1 construct: fusion protein, of which the carboxyl terminal 21 amino acids were removed to enhance its solubility; His tag (GSHHHHHH); made in house; host or cells: E. coli
The assay can be described thus: Inhibition of viral RNA-dependent RNA polymerase (RdRp), in vitro biochemical assay. The arrangement: species or system HCV genotype 1b virus (BB7). The following applies: read-out: HCV pol-BB7 IC50. In outline:
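IC50 values are the concentrations that halve in vitro RNA synthesis by HCV NS5B polymerase. The enzyme was a C-terminally truncated (Δ21), His-tagged genotype 1b (BB7 consensus) protein purified from E. coli.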

[3] abbreviates: Hepatitis C virus, HCV replicon, range of EC50.
The mark [4] stands for this setting: HCV NS5B RdRp, BB7, reported as range class.
Setting [5] is: Hepatitis C virus, Huh-7-Clone A, NS5A ELISA, 72-hour incubation, ranges of EC50.
The mark [6] stands for this setting: purified His-tagged NS5B (BB7), carboxyl terminal 21 amino acids removed.
[7] abbreviates: Hepatitis C virus, HCV replicon assay, ranges of 50% effective concentration (EC50).
Where [8] appears, read: HCV NS5B polymerase, BB7 (genotype 1b), values given as range classes A-D.
[9] abbreviates: ranges of EC50 in HCV replicon assay.
[10] abbreviates: Hepatitis C virus, ranges of EC50 in HCV replicon assay.
The mark [11] stands for this setting: Hepatitis C virus, HCV replicon assay, ranges of EC50.
Setting [12] is: HCV NS5B RdRp, BB7, class symbols A-D.

Where two headings read alike, the source gives them in different places. Where only a bound is given, the exact number is not on record here.

As a reminder, the IC50 is the concentration at which inhibition is half-maximal. Consider `CNC(=O)c1c(-c2ccc(F)cc2)oc2cc(-c3cccnc3)c(OC)cc12` [Example 236, 2-(4-Fluoro-phenyl)-5-methoxy-6-pyridin-3-yl-benzofuran-3-carboxylic acid methylamide], for which the EC50 in assay [1] (setting [3]) is below 1 µM. Moreover, in assay [2] (setting [4]), the 50% inhibitory concentration (IC50) was at most 0.5 µM.

Regarding `CNC(=O)c1c(-c2ccc(CNC(C)=O)cc2)oc2ccc(OC(C)C)cc12` [Example 4, 2-[4-(Acetylamino-methyl)-phenyl]-5-isopropoxy-benzofuran-3-carboxylic acid methylamide], in assay [1] (setting [5]), the EC50 is below 30 µM. In addition, the IC50 in assay [2] (setting [6]) fell in the range of 0.5 to 5 µM.

Regarding `CNC(=O)c1c(-c2ccc(F)cc2)oc2ccc(OCc3cscn3)cc12` [Example 435, 2-(4-Fluoro-phenyl)-5-(thiazol-4-ylmethoxy)-benzofuran-3-carboxylic acid methylamide], in assay [1] (setting [7]), the EC50 was above 30 µM. In addition, the half-maximal inhibitory concentration (IC50) in assay [2] (setting [8]) lay within 0.5 to 5 µM.

As for “2-(4-Bromo-phenyl)-5-isopropoxy-benzofuran-3-carboxylic acid methylamide [Example 104]”, the EC50 in assay [1] (setting [9]) is below 10 µM. Moreover, the IC50 in assay [2] (HCV NS5B RdRp, BB7 genotype 1b) was at most 0.5 µM.

For `CNC(=O)c1c(-c2ccc(F)cc2)oc2cc(N3CCC(O)C3)c(OC(C)C)cc12` (centres unmarked) [Example 110], the EC50 in assay [1] (setting [10]) was below 1 µM. Moreover, the IC50 in assay [2] (HCV NS5B RdRp, BB7 genotype 1b) is at most 0.5 µM.

Take `CNC(=O)c1c(-c2ccc(F)cc2)oc2cc(-c3c(C)noc3C)c(OCCN3CCC(C#N)CC3)cc12` [Example 419, 5-[2-(4-Cyano-piperidin-1-yl)-ethoxy]-6-(3,5-dimethyl-isoxazol-4-yl)-2-(4-fluoro-phenyl)-benzofuran-3-carboxylic acid methylamide]: the EC50 in assay [1] (setting [7]) was below 1 µM. Moreover, in assay [2] (setting [8]), the half-maximal inhibitory concentration (IC50) is at most 0.5 µM.

As for “6-(3-Amino-pyrrolidin-1-yl)-2-(4-fluoro-phenyl)-5-isopropoxy-2,3-dihydro-benzofuran-3-carboxylic acid methylamide [Example 15]”, in assay [1] (Huh-7-Clone A, NS5A ELISA, 72-hour incubation, ranges of EC50), the EC50 is below 30 µM. Also, the IC50 in assay [2] (setting [6]) lay in the range of 5 to 30 µM.

With `CNC(=O)c1c(-c2ccc(F)cc2)oc2cc(-c3c(C)n[nH]c3C)c(OC(C)C)cc12` [Example 246, 6-(3,5-Dimethyl-1H-pyrazol-4-yl)-2-(4-fluoro-phenyl)-5-isopropoxy-benzofuran-3-carboxylic acid methylamide], the EC50 in assay [1] (setting [3]) was below 1 µM. The half-inhibitory concentration (IC50) in assay [2] (setting [4]) was at most 0.5 µM.

Consider `CNC(=O)c1c(-c2ccc(F)cc2)oc2cc(N(Cc3cccc(CBr)n3)S(C)(=O)=O)c(OCc3cccc(CBr)n3)cc12` [Example 391, 5-(6-Bromomethyl-pyridin-2-ylmethoxy)-6-[(6-bromomethyl-pyridin-2-ylmethyl)-methanesulfonyl-amino] 2-(4-fluoro-phenyl)-benzofuran-3-carboxylic acid methylamide], for which the EC50 in assay [1] (setting [7]) was below 10 µM. In assay [2] (setting [8]), the IC50 is at most 0.5 µM.

With `CNC(=O)c1c(-c2ccc(F)cc2)oc2cc(-c3cc(COC)on3)c(OC(C)C)cc12` [Example 273, 2-(4-Fluoro-phenyl)-5-isopropoxy-6-(5-methoxymethyl-isoxazol-3-yl)-benzofuran-3-carboxylic acid methylamide], the EC50 in assay [1] (setting [11]) is below 1 µM. The IC50 in assay [2] (setting [12]) was at most 0.5 µM.

Consider `CNC(=O)c1c(-c2ccc(F)cc2)oc2cc(N(C)S(C)(=O)=O)c(OCc3cccc(C(=O)O)c3)cc12` [Example 312, 3-[2-(4-Fluoro-phenyl)-6-(methanesulfonyl-methyl-amino)-3-methylcarbamoyl-benzofuran-5-yloxymethyl]-benzoic acid], for which the EC50 in assay [1] (setting [11]) is below 1 µM. For the same compound, the IC50 in assay [2] (setting [12]) was at most 0.5 µM.

As to `CNC(=O)c1c(-c2ccc(F)cc2)oc2cc(-c3c(C)nn(C)c3C)c(OC(C)C)cc12` [Example 264, 2-(4-Fluoro-phenyl)-5-isopropoxy-6-(1,3,5-trimethyl-1H-pyrazol-4-yl)-benzofuran-3-carboxylic acid methylamide], the EC50 in assay [1] (setting [11]) is below 10 µM. Besides, the IC50 in assay [2] (setting [12]) fell in the range of 0.5 to 5 µM.

For `CNC(=O)c1c(-c2ccc(F)cc2)oc2cc(-c3ccco3)c(OC(C)C)cc12` [Example 151, 2-(4-Fluoro-phenyl)-6-furan-2-yl-5-isopropoxy-benzofuran-3-carboxylic acid methylamide], the EC50 in assay [1] (setting [10]) is below 30 µM. The IC50 in assay [2] (HCV NS5B RdRp, BB7 genotype 1b) was at most 0.5 µM.

`CNC(=O)c1c(-c2ccc(F)cc2)oc2cc(-c3cc(C)no3)c(OC(C)C)cc12` [Example 233, 2-(4-Fluoro-phenyl)-5-isopropoxy-6-(3-methyl-isoxazol-5-yl)-benzofuran-3-carboxylic acid methylamide]: the EC50 in assay [1] (setting [3]) was below 30 µM. Also, the IC50 in assay [2] (setting [4]) was at most 0.5 µM.

With `CNC(=O)c1c(-c2ccc(F)cc2)oc2cc(-c3c(C)noc3C)c(OCCCO)cc12` [Example 51, 6-(3,5-Dimethyl-isoxazol-4-yl)-2-(4-fluoro-phenyl)-5-(3-hydroxy-propoxy)-benzofuran-3-carboxylic acid methylamide], the EC50 in assay [1] (setting [5]) is below 1 µM. The IC50 in assay [2] (setting [6]) was at most 0.5 µM.

As for `CNC(=O)c1c(-c2ccc(F)cc2)oc2cc(S(N)(=O)=O)c(OC(C)C)cc12` [Example 149, 2-(4-Fluoro-phenyl)-5-isopropoxy-6-sulfamoyl-benzofuran-3-carboxylic acid methylamide], the EC50 in assay [1] (setting [10]) was above 30 µM. The IC50 in assay [2] (HCV NS5B RdRp, BB7 genotype 1b) fell in the range of 5 to 30 µM.

In the case of `CNC(=O)c1c(-c2ccc(F)cc2)oc2cc(N3CCOCC3)c(OCc3noc(C(C)(C)C)n3)cc12` [Example 204, 5-(5-tert-Butyl-[1,2,4]oxadiazol-3-ylmethoxy)-2-(4-fluoro-phenyl)-6-morpholin-4-yl-benzofuran-3-carboxylic acid methylamide], the EC50 in assay [1] (setting [3]) was below 1 µM. Also, in assay [2] (setting [4]), the IC50 was at most 0.5 µM.

Consider `CNC(=O)c1c(-c2ccc(F)cc2)oc2cc(N(C)S(C)(=O)=O)c(OCC#N)cc12` [Example 395, 5-Cyanomethoxy-2-(4-fluoro-phenyl)-6-(methanesulfonyl-methyl-amino)-benzofuran-3-carboxylic acid methylamide], for which the EC50 in assay [1] (setting [7]) is below 1 µM. In addition, in assay [2] (setting [8]), the concentration for half-maximal inhibition (IC50) was at most 0.5 µM.

`CNC(=O)c1c(-c2ccc(F)cc2)oc2cc(C3CCCN3)c(OC(C)C)cc12` (centres unmarked) [Example 265, 2-(4-Fluoro-phenyl)-5-isopropoxy-6-pyrrolidin-2-yl-benzofuran-3-carboxylic acid methylamide]: in assay [1] (setting [11]), the EC50 was above 30 µM. The IC50 in assay [2] (setting [12]) was in the range of 5 to 30 µM.

In the case of `CNC(=O)c1c(-c2ccc(F)cc2)oc2cc(N(CC3CC3)S(C)(=O)=O)c(OC)cc12` [Example 330, 6-(Cyclopropylmethyl-methanesulfonyl-amino)-2-(4-fluoro-phenyl)-5-methoxy-benzofuran-3-carboxylic acid methylamide], the EC50 in assay [1] (setting [11]) was below 1 µM. Besides, the half-inhibitory concentration (IC50) in assay [2] (setting [12]) is at most 0.5 µM.

Turning to `CNC(=O)c1c(-c2ccc(F)cc2)oc2cc(C(N)=O)c(OC(C)C)cc12` [Example 146, 2-(4-Fluoro-phenyl)-5-isopropoxy-benzofuran-3,6-dicarboxylic acid 6-amide 3-methylamide], the EC50 in assay [1] (setting [9]) was above 30 µM. In addition, in assay [2] (HCV NS5B RdRp, BB7 genotype 1b), the IC50 is 0.5 to 5 µM.

In the case of `CNC(=O)c1c(-c2ccc(F)cc2)oc2ccc(OCc3cccc(C(=O)OC)c3)cc12` [Example 258, 3-[2-(4-Fluoro-phenyl)-3-methylcarbamoyl-benzofuran-5-yloxymethyl]-benzoic acid methyl ester], the EC50 in assay [1] (setting [11]) is above 30 µM. Moreover, the 50% inhibitory concentration (IC50) in assay [2] (setting [12]) was at most 0.5 µM.
